Emax and EC50 data for 25 molecules are collected here from patent publication US20250101041A1, “POSITIVE ALLOSTERIC MODULATORS OF THE MUSCARINIC ACETYLCHOLINE RECEPTOR M4” (Vanderbilt University, priority 2022, published 2025).

What is called Emax is the greatest response seen or fitted, relative to the assay's reference. The EC50 is the concentration at which the effect is half-maximal.

The target in this experiment is T1, human mAChR M4 (Homo sapiens, UniProt P08173).
T1 construct: expressed in transfected cells; host or cells: CHO-K1 (American Type Culture Collection), stably expressing hM4 and Gqi5
T1 sequence (P08173 1-479): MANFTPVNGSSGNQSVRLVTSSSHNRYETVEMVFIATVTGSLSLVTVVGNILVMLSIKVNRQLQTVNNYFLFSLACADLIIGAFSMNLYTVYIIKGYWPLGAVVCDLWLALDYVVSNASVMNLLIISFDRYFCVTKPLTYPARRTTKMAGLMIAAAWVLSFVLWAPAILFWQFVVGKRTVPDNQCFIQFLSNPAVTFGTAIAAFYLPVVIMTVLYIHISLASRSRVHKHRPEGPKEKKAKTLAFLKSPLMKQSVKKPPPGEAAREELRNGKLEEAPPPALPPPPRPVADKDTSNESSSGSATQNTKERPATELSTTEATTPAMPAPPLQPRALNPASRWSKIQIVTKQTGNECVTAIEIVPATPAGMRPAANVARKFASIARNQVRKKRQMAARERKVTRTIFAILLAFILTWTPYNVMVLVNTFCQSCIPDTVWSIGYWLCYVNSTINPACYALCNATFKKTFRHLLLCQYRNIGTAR
The experiment in a line: mAChR M4 cell-based functional assay: calcium mobilization (Fluo-4, FDSS), potentiation of EC20 acetylcholine response in hM4-Gqi5 CHO-K1 cells. The settings on record: human M4; for Emax at 30 µM: CHO-K1, % ACh maximum at 30 μM; for EC50: potentiation of EC20 acetylcholine response, calcium mobilization. The method in brief: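 CHO-K1 cells stably co-expressing human M4 and chimeric Gqi5, loaded with Fluo-4 AM (50 min, 37 °C). Compounds in 11-point 1:3 series added first; EC20 acetylcholine added at 144 s and again at 230 s. Calcium read on FDSS at 1 Hz; EC50 and Emax from four-parameter logistic fit of potentiated EC20 response.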
A general note: Calcium flux is commonly read through the fluorescence of an indicator in the cells.

Take `Cc1cc2nccc(=O)n2nc1N1CCc2ncc(Nc3ccncc3F)cc2C1` [Compound 2-111, 7-(3-((3-fluoropyridin-4-yl)amino)-7,8-dihydro-1,6-naphthyridin-6(5H)-yl)-8-methyl-4H-pyrimido[1,2-b]pyridazin-4-one]: the maximal response (Emax) at 30 µM was determined as 98% and the EC50 was 0.011 µM.

In the case of `COCc1cc(=O)n2nc(N3CCc4ncc(-c5cnn(C)c5C)cc4C3)c(C)cc2n1` [Compound 1-366, 7-(3-(1,5-dimethyl-1H-pyrazol-4-yl)-7,8-dihydro-1,6-naphthyridin-6(5H)-yl)-2-(methoxymethyl)-8-methyl-4H-pyrimido[1,2-b]pyridazin-4-one], the Emax at 30 µM stood at 72% and the half-maximal effective concentration (EC50) was found to be 0.284 µM.

For `Cc1ncccc1-c1cnc2c(c1)CN(c1nn3c(=O)cc(C(F)F)nc3c(C)c1C)CC2` [Compound 1-115, 2-(difluoromethyl)-8,9-dimethyl-7-(3-(2-methylpyridin-3-yl)-7,8-dihydro-1,6-naphthyridin-6(5H)-yl)-4H-pyrimido[1,2-b]pyridazin-4-one], the Emax at 30 µM was determined as 91% and the concentration giving a half-maximal response (EC50) came out at 0.313 µM.

As for `Cc1cc(=O)n2nc(N3CCc4ncc(-c5cnc6ccccc6c5)cc4C3)c(C)c(C)c2n1` [Compound 1-120, 2,8,9-trimethyl-7-(3-(quinolin-3-yl)-7,8-dihydro-1,6-naphthyridin-6(5H)-yl)-4H-pyrimido[1,2-b]pyridazin-4-one], the Emax at 30 µM is 65% and the EC50 was 0.749 µM.

With `Cc1cc(=O)n2nc(N3CCc4ncc(C(F)(F)F)cc4C3)c(C)cc2n1` [Compound 1-16, 2,8-dimethyl-7-(3-(trifluoromethyl)-7,8-dihydro-1,6-naphthyridin-6(5H)-yl)-4H-pyrimido[1,2-b]pyridazin-4-one], the Emax at 30 µM came out at 71% and the half-maximal effective concentration (EC50) is 0.34 µM.

In the case of `Cc1c(N2CCc3ncc(-c4cnc(Cl)c(F)c4)cc3C2)nn2c(=O)ccnc2c1C` [Compound 1-146, 7-(3-(6-chloro-5-fluoropyridin-3-yl)-7,8-dihydro-1,6-naphthyridin-6(5H)-yl)-8,9-dimethyl-4H-pyrimido[1,2-b]pyridazin-4-one], the Emax at 30 µM worked out at 86% and the EC50 amounted to 0.399 µM.

In the case of `Cc1cc2nccc(=O)n2nc1N1CCc2ncc(-c3ccccn3)cc2C1` [Compound 1-349, 8-methyl-7-(3-(pyridin-2-yl)-7,8-dihydro-1,6-naphthyridin-6(5H)-yl)-4H-pyrimido[1,2-b] pyridazin-4-one], the Emax at 30 µM came to 69% and the EC50 was determined as 1.14 µM.

As to `COc1cnccc1-c1cnc2c(c1)CN(c1nn3c(=O)ccnc3cc1C)CC2` [Compound 1-50, 7-(3-(3-methoxypyridin-4-yl)-7,8-dihydro-1,6-naphthyridin-6(5H)-yl)-8-methyl-4H-pyrimido[1,2-b]pyridazin-4-one], the Emax at 30 µM was 84% and the half-maximal effective concentration (EC50) stood at 0.685 µM.

`Cc1cc(=O)n2nc(N3CCc4ncc(-c5cncnc5)cc4C3)c(C)c(C)c2n1` [Compound 1-118, 2,8,9-trimethyl-7-(3-(pyrimidin-5-yl)-7,8-dihydro-1,6-naphthyridin-6(5H)-yl)-4H-pyrimido[1,2-b]pyridazin-4-one]: the maximum response (Emax) at 30 µM was determined as 83% and the half-maximal effective concentration (EC50) worked out at 6.07 µM.

With `Cc1cc(F)ccc1Nc1cnc2c(c1)CN(c1nn3c(=O)ccnc3cc1C)CC2` [Compound 2-65, 7-(3-((4-fluoro-2-methylphenyl)amino)-7,8-dihydro-1,6-naphthyridin-6(5H)-yl)-8-methyl-4H-pyrimido[1,2-b]pyridazin-4-one], the Emax at 30 µM amounted to 90% and the EC50 came to 0.099 µM.

`Cc1cc2nccc(=O)n2nc1N1CCc2ncc(NC(=O)c3ncco3)cc2C1` [Compound 2-122, N-(6-(8-methyl-4-oxo-4H-pyrimido[1,2-b]pyridazin-7-yl)-5,6,7,8-tetrahydro-1,6-naphthyridin-3-yl)oxazole-2-carboxamide]: the Emax at 30 µM was determined as 44% and the 50% effective concentration (EC50) came to 1.88 µM.

As to `Cc1cc(=O)n2nc(N3CCc4ncc(-c5ccc(C6CC6)nc5)cc4C3)c(C)cc2n1` [Compound 1-72, 7-(3-(6-cyclopropylpyridin-3-yl)-7,8-dihydro-1,6-naphthyridin-6(5H)-yl)-2,8-dimethyl-4H-pyrimido[1,2-b]pyridazin-4-one], the Emax at 30 µM was determined as 75% and the concentration for a half-maximal effect (EC50) was determined as 0.174 µM.

For the molecule `Cc1ccc(-c2cnc3c(c2)CN(c2nn4c(=O)cc(C(F)F)nc4c(C)c2C)CC3)cc1F` [Compound 1-191, 2-(difluoromethyl)-7-(3-(3-fluoro-4-methylphenyl)-7,8-dihydro-1,6-naphthyridin-6(5H)-yl)-8,9-dimethyl-4H-pyrimido[1,2-b]pyridazin-4-one], the maximal effect (Emax) at 30 µM is 84% and the EC50 turned out to be 2.4 µM.

As for `Cc1cc2nccc(=O)n2nc1N1CCc2ncc(N3CCOc4ncccc43)cc2C1` [Compound 2-7, 7-(3-(2,3-dihydro-1H-pyrido[2,3-b][1,4]oxazin-1-yl)-7,8-dihydro-1,6-naphthyridin-6(5H)-yl)-8-methyl-4H-pyrimido[1,2-b]pyridazin-4-one], the Emax at 30 µM amounted to 84% and the EC50 was 0.024 µM.

Turning to `Cc1cncc(-c2cnc3c(c2)CN(c2nn4c(=O)cc(C(F)F)nc4c(C)c2C)CC3)c1` [Compound 1-119, 2-(difluoromethyl)-8,9-dimethyl-7-(3-(5-methylpyridin-3-yl)-7,8-dihydro-1,6-naphthyridin-6(5H)-yl)-4H-pyrimido[1,2-b]pyridazin-4-one], the maximal effect (Emax) at 30 µM was determined as 85%.

For `Cc1cc(=O)n2nc(N3CCc4ncc(-c5cnccn5)cc4C3)c(C)cc2n1` [Compound 1-260, 2,8-dimethyl-7-(3-(pyrazin-2-yl)-7,8-dihydro-1,6-naphthyridin-6(5H)-yl)-4H-pyrimido[1,2-b]pyridazin-4-one], the Emax at 30 µM turned out to be 83% and the concentration for a half-maximal effect (EC50) is 0.097 µM.

`Cc1c(N2CCc3ncc(-c4cncnc4)cc3C2)nn2c(=O)ccnc2c1C` [Compound 1-104, 8,9-dimethyl-7-(3-(pyrimidin-5-yl)-7,8-dihydro-1,6-naphthyridin-6(5H)-yl)-4H-pyrimido[1,2-b]pyridazin-4-one]: the Emax at 30 µM came to 90% and the concentration for a half-maximal effect (EC50) amounted to 0.696 µM.

`Cc1cc(Nc2cnc3c(c2)CN(c2nn4c(=O)ccnc4cc2C)CC3)cnc1Cl` [Compound 2-132, 7-(3-((6-chloro-5-methylpyridin-3-yl)amino)-7,8-dihydro-1,6-naphthyridin-6(5H)-yl)-8-methyl-4H-pyrimido[1,2-b]pyridazin-4-one]: the maximum response (Emax) at 30 µM was 93% and the EC50 stood at 0.587 µM.

With `COCc1cc(=O)n2nc(N3Cc4cc(C(F)(F)F)cnc4C(C)C3)c(C)c(C)c2n1` (single isomer, unassigned) [Compound 1-376], the Emax at 30 µM worked out at 106% and the half-maximal effective concentration (EC50) was determined as 0.325 µM.

As to `Cc1ccccc1Nc1cnc2c(c1)CN(c1nn3c(=O)ccnc3cc1C)CC2` [Compound 2-75, 8-methyl-7-(3-(o-tolylamino)-7,8-dihydro-1,6-naphthyridin-6(5H)-yl)-4H-pyrimido[1,2-b]pyridazin-4-one], the Emax at 30 µM is 93% and the EC50 was 0.017 µM.

Take `Cc1cc2nccc(=O)n2nc1N1CCc2ncc(N3CCOC(c4cccnc4)C3)cc2C1` (stereo not shown) [Compound 2-77, 8-methyl-7-(3-(2-(pyridin-3-yl)morpholino)-7,8-dihydro-1,6-naphthyridin-6(5H)-yl)-4H-pyrimido[1,2-b]pyridazin-4-one]: the maximal effect (Emax) at 30 µM worked out at 80% and the EC50 came out at 1.27 µM.

In the case of `Cc1cc2nccc(=O)n2nc1N1CCc2ncc(NCC3CCOCC3)cc2C1` [Compound 2-91, 8-methyl-7-(3-(((tetrahydro-2H-pyran-4-yl)methyl)amino)-7,8-dihydro-1,6-naphthyridin-6(5H)-yl)-4H-pyrimido[1,2-b]pyridazin-4-one], the maximal response (Emax) at 30 µM was 80% and the concentration for a half-maximal effect (EC50) came to 1.82 µM.

As for `Cc1cc2nccc(=O)n2nc1N1CCc2ncc(N3CC(C)Oc4ccccc43)cc2C1` (stereo not shown) [Compound 2-57, 8-methyl-7-(3-(2-methyl-2,3-dihydro-4H-benzo[b][1,4]oxazin-4-yl)-7,8-dihydro-1,6-naphthyridin-6(5H)-yl)-4H-pyrimido[1,2-b]pyridazin-4-one], the maximum response (Emax) at 30 µM came out at 93% and the EC50 stood at 0.02 µM.

With `Cc1cc(=O)n2nc(N3CCc4ncc(-c5cnc(F)cc5C)cc4C3)c(C)c(C)c2n1` [Compound 1-202, 7-(3-(6-fluoro-4-methylpyridin-3-yl)-7,8-dihydro-1,6-naphthyridin-6(5H)-yl)-2,8,9-trimethyl-4H-pyrimido[1,2-b]pyridazin-4-one], the Emax at 30 µM was determined as 91% and the EC50 worked out at 0.104 µM.

Consider `Cc1c(N2CCc3ncc(N4CCOc5ncccc54)cc3C2)nn2c(=O)ccnc2c1C` [Compound 2-33, 7-(3-(2,3-dihydro-1H-pyrido[2,3-b][1,4]oxazin-1-yl)-7,8-dihydro-1,6-naphthyridin-6(5H)-yl)-8,9-dimethyl-4H-pyrimido[1,2-b]pyridazin-4-one], for which the Emax at 30 µM was 89% and the EC50 came out at 0.015 µM.
